These results are taken from patent US7727736B2, “Soluble phospholipids for use in clotting factor assays” (The University of North Carolina at Chapel Hill, priority 2003, dated 2010).

The target of one data set is T1, factor VIIIa-IXa complex (Homo sapiens, UniProt P00451+P00740).
T1 construct: 2.5 nM factor IXa and 10 nM factor VIIIa
Put plainly: Activation of factor X by factor IXa and factor VIIIa. The class given is biochemical. To be noted: in the presence of C6PS. As for the experimental part:
The rate of activation of factor X by 2.5 nM factor IXa and 10 nM factor VIIIa in the presence of 600 μM C6PS was monitored at different concentrations of factor X (FIG. 13). The KM for this reaction was 66 nM, which is similar to that obtained with 30% PS/PC membranes (45 nM) (Larson et al. (1996) J. Biol. Chem. 271 3869).

The next data set concerns the target T2, factor VIII (Homo sapiens, UniProt P00451).
T2 construct: using normal pooled plasma (100% factor VIII); from tissue; host or cells: normal pooled plasma
Put plainly: Chromogenic FVIII assay. The class given is biochemical. The following applies: normal pooled plasma (100% factor VIII), varying C6PS. As for the experimental part:
For the chromogenic […], a standard curve was prepared by diluting normal pooled plasma (which had 1 U/mL […] according to the certification sheets) into […] to give levels of 100% factor VIII, 75%, 50%, 25%, and 10% along with the factor VIII deficient plasma, which has 0% factor VIII.
Two mixtures were prepared. Mixture #1 consisted of thrombin—3 nM, factor IXa—3 nM, factor X—7.2 μg/mL, calcium—12 mM in a buffer of 20 mM Tris (pH 7.9), 150 mM NaCl. Also included in Mixture #1 were either lipid vesicles (lipid unilamellar vesicles; “LUV”)—20 μM or C6PS—2,625 μM. Mixture #2 consisted of hirudin—60 nM and Pefachrome FXa—1.8 mM in a buffer of 20 mM Tris (pH 7.9), 150 mM NaCl.
Factor VIII levels were assayed by adding 25 μL plasma to 2000 μL of buffer. 50 μL of the diluted plasma, 100 μL Mixture #1, and […] were incubated at 37° C. for 3 minutes. […] Finally, 50 μL of Mixture #2 was added to diluted plasma+Mixture #1 and the reaction was monitored at 405 nm for 5 minutes. The rate is the change in absorbance between 30 seconds and 120 seconds expressed as mOD/minute. […]
The effect of varying C6PS levels was also monitored as described above using normal pooled plasma (100% factor VIII), except that the concentration of C6PS in Mixture #1 was varied by serial dilution into buffer before being added to the final Mixture #1.

For another data set, the system named is plasma. Briefly: Activated partial thromboplastin time (aPTT) assay. The class given is biochemical. Here is the method: Activated partial thromboplastin time assays were done using an optical detection method to determine clotting time. Two reaction mixtures were created. Mixture A had kaolin in concentrations ranging from 50 g/L to 500 g/L and either phospholipid vesicles (ranging from 0.67 to 240 μM) or C6PS (ranging from 5 μM to 5250 μM) in buffer of 20 mM HEPES (pH 7.4), 150 mM NaCl. Mixture B was 25 mM calcium chloride in a buffer of 20 mM HEPES (pH 7.4), 150 mM NaCl. Plasma, Mixture A, and Mixture B were all incubated at 37° C. for 3 minutes. Mixture A was added to plasma and incubated for 3 minutes at 37° C. Buffer B was added and the optical density was measured. Clotting was detected as an increase in absorbance.
As expected, lipid vesicles shortened the Kaolin induced clotting time in a dose-dependent fashion by as much as 100 seconds. C6PS gave a dose dependent shortening in the clotting time, but the largest decrease was 13 seconds. We speculated that the Kaolin might interfere with C6PS. Since the purpose of Kaolin is to activate the contact factors of coagulation (high molecular weight kininogen, factor XII, and factor XI), we substituted 30 nM activated factor XI for Kaolin in the assay described above.

The conditions of data set [1]: pure C6PS; cited from earlier work.

T2 sequence (P00451 20-391 limits assumed): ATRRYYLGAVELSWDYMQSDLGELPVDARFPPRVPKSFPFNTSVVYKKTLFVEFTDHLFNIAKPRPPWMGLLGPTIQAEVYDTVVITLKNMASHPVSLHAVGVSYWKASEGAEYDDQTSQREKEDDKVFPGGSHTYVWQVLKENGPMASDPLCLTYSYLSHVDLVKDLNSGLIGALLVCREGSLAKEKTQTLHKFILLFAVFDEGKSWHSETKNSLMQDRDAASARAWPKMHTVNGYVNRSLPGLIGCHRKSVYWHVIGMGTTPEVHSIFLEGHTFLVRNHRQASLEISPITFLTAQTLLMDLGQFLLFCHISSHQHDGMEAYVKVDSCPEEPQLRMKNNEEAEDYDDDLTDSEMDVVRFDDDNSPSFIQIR
T2 sequence (P00451 392-759 limits assumed): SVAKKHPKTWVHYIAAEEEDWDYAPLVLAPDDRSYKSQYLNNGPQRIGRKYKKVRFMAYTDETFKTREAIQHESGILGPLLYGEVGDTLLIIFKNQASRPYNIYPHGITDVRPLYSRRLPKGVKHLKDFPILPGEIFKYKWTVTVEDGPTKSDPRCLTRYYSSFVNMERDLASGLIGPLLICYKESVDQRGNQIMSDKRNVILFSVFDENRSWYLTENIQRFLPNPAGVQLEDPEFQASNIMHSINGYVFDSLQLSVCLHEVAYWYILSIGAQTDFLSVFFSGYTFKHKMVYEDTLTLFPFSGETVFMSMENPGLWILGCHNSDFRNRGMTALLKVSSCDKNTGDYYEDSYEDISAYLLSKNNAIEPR
T2 sequence (P00451 1709-2351 limits assumed): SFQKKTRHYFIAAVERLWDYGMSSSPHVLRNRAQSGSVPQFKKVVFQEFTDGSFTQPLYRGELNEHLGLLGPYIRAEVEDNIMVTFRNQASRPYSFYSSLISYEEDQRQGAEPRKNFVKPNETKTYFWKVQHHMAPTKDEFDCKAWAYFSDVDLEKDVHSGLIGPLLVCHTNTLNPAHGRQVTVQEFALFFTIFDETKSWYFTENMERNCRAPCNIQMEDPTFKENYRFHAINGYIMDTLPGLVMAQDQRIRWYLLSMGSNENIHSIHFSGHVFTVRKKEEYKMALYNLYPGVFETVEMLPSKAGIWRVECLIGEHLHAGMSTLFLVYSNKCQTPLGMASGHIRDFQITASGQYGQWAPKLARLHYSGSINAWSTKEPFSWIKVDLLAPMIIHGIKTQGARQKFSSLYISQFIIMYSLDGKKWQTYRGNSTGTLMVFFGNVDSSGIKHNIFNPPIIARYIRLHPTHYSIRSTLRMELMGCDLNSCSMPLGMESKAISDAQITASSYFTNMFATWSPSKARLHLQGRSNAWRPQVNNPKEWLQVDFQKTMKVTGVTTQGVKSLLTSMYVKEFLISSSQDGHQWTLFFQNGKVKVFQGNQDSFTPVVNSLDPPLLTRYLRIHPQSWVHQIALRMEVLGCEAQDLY
T2 sequence (P00740 47-191 partner limits assumed): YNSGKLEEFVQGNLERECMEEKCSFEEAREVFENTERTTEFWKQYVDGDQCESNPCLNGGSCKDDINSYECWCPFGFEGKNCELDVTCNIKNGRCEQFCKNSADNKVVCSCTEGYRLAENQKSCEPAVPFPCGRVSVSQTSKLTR
T2 sequence (P00740 227-461 partner limits assumed): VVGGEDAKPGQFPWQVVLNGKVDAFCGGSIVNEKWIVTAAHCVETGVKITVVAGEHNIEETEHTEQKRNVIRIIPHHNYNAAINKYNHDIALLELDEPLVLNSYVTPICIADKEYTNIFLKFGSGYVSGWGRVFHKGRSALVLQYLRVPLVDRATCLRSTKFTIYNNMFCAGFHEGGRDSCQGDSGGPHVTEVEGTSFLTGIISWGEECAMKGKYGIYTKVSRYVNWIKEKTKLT
T1 sequence (P00740 47-191 limits assumed): as the sequence (P00740 47-191 partner limits assumed) above
T1 sequence (P00740 227-461 limits assumed): as the sequence (P00740 227-461 partner limits assumed) above
T1 sequence (P00451 20-391 limits assumed): as the sequence (P00451 20-391 limits assumed) above
T1 sequence (P00451 392-759 limits assumed): as the sequence (P00451 392-759 limits assumed) above
T1 sequence (P00451 1709-2351 limits assumed): as the sequence (P00451 1709-2351 limits assumed) above

As for `CCCCCC(=O)OC[C@H](COP(=O)(O)OC[C@H](N)C(=O)O)OC(=O)CCCCC` [C6PS, 1,2-dicaproyl-sn-glycero-3-phospho-L-serine], at factor VIIIa-IXa complex, the “fold reduction of KM for factor X activation with the addition of VIIIa” value is listed as 5 fold. For the same compound, on factor VIII, the “rate in FVIII chromogenic assay versus C6PS concentration” value is recorded as “saturated”. Further, the “maximal shortening of clotting time” value in the data set with plasma (30 nM activated factor XI substituted for Kaolin) came to 20 s. The “largest shortening of the Kaolin induced clotting time” value with plasma (Kaolin as activator) was 13 s. The “monomers in minimal micelle predicted for C6PS” value in data set [1] is approximately 200 monomers.
